# Laboratory results published in ChEMBL document CHEMBL4354882, “Selective Janus Kinase 2 (JAK2) Pseudokinase Ligands with a Diaminotriazole Core” (J Med Chem, 2020).
# Biological target: T1, Tyrosine-protein kinase JAK2 (Homo sapiens, UniProt O60674)
# Test: Binding affinity to human C-terminal His8-tagged JAK2 pseudokinase (513 to 827 residues) expressed in baculovirus infected Hi-5 cells by intrinsic tryptophan fluorescence assay
# T1 sequence (O60674 whole entry, the tested form may be a part): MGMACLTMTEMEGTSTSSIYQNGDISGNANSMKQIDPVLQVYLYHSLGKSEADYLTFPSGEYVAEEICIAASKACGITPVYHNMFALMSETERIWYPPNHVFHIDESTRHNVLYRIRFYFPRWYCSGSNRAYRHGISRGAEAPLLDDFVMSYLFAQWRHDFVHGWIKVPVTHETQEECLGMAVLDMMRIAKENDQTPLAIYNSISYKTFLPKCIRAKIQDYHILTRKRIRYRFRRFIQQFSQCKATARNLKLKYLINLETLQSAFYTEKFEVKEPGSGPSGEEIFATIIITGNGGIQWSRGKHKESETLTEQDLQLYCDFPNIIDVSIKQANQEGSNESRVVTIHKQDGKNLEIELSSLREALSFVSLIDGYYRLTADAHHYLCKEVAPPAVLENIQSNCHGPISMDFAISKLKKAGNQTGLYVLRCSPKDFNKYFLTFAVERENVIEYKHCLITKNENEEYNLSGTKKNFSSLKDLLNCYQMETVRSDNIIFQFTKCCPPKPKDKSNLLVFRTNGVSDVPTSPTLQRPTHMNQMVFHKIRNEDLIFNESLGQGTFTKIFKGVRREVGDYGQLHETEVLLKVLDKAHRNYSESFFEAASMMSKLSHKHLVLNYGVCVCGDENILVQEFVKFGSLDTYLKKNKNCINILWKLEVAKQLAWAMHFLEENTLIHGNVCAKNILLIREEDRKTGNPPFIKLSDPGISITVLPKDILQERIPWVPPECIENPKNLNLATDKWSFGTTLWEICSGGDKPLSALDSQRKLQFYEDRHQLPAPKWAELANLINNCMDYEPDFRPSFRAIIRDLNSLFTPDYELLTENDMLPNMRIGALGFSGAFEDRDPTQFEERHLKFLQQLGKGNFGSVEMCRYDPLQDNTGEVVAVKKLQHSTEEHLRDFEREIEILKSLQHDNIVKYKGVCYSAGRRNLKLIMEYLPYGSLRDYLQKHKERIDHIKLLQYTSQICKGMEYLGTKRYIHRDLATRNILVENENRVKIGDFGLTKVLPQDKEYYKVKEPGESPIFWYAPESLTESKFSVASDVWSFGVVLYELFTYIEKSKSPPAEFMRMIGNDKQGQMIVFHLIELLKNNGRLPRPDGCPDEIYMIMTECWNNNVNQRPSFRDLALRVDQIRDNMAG
row,Kd [µM],Compound
1,0.62,CC(C)CCN1c2nc(Nc3cc(F)c(O)c(F)c3)ncc2N(C)C(=O)C1C (stereo not drawn)

# Biological target: T1, Tyrosine-protein kinase JAK2
# Design: species or system Sf9
row,Compound,Kd [µM]
1,Nc1nc(Nc2ccc(S(N)(=O)=O)cc2)nn1Cc1c(F)cccc1F,16.7
2,N#Cc1ccc(Nc2nc(N)n(C(=O)Nc3cccc(OCC(=O)O)c3)n2)cc1,4
3,Nc1nc(Nc2ccc(S(N)(=O)=O)cc2)nn1C(=O)Nc1ccc(-c2ccc(C(=O)O)o2)cc1,0.439
4,COC(=O)COc1ccc(NC(=O)n2nc(Nc3ccc(S(N)(=O)=O)cc3)nc2N)cc1,1.9
5,Nc1nc(Nc2ccc(S(N)(=O)=O)cc2)nn1C(=O)Nc1ccc(-c2nnc(C(=O)O)o2)cc1,7
6,CC(C)CCN1c2nc(Nc3cc(F)c(O)c(F)c3)ncc2N(C)C(=O)C1C (stereo not drawn),2

# Second part, the compound after the results:
row,Kd [µM],Compound
1,12.3,Nc1nc(Nc2ccc(S(N)(=O)=O)cc2)nn1C(=O)Nc1cccnc1
2,30.5,Nc1nc(Nc2ccc(S(N)(=O)=O)cc2)nn1C(=O)Nc1ccccn1
3,4.7,Nc1nc(Nc2ccc(S(N)(=O)=O)cc2)nn1C(=O)Nc1ccccc1
4,47.8,CN(C(=O)n1nc(Nc2ccc(S(N)(=O)=O)cc2)nc1N)c1ccccc1

# Biological target: T1, Tyrosine-protein kinase JAK2
# Test: Binding affinity to wild type 6XHis-tagged human JAK2 JH2 domain (513 to 827 residues) expressed in baculovirus infected Sf9 cells by MANT-ATP binding assay
row,Compound,Kd [µM]
1,Nc1ncnc2c1ncn2[C@@H]1O[C@H](COP(=O)(O)OP(=O)(O)OP(=O)(O)O)[C@@H](O)[C@H]1O [ADENOSINE TRIPHOSPHATE],1.3

# Biological target: Tyrosine-protein kinase JAK2 (Homo sapiens, UniProt O60674, V617F)
# Sequence (O60674 whole entry V617F, the tested form may be a part): as the sequence (O60674 whole entry, the tested form may be a part) above, with V617F counted along it
# Test: Binding affinity to 6XHis-tagged human JAK2 JH2 domain V617F mutant (513 to 827 residues) expressed in baculovirus infected Sf9 cells by MANT-ATP binding assay
row,Compound,Kd [µM]
1,Nc1ncnc2c1ncn2[C@@H]1O[C@H](COP(=O)(O)OP(=O)(O)OP(=O)(O)O)[C@@H](O)[C@H]1O [ADENOSINE TRIPHOSPHATE],1.3
